Laboratory results reported in PMC11542186, “Pin1 WW Domain Ligand Library Synthesized with an Easy Solid-Phase Phosphorylating Reagent” (Biochemistry, 2024).
Where a SMILES comes first, the peptide text is derived from it. [ ]: non-standard residue; d: D form. The star is where a group is joined. pS = N[CH](COP(=O)(O)O)C(=O)O; Agmatine = N=C(N)NCCCCN*; Morpholide = C1CN(*)CCO1; Piperidide = C1CCN(*)CC1; Pyrrolidide = C1CCN(*)C1

Biological target: T1, Pin1 WW domain (Pin1–HRP) (Homo sapiens, UniProt Q13526)
T1 construct: purchased R&D Systems
T1 sequence (Q13526 whole entry, the tested form may be a part): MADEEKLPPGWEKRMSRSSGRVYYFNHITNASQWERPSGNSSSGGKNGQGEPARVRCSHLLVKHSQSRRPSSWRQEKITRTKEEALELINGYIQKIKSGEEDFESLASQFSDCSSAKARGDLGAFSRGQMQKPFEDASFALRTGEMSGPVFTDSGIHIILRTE
Test: ELEBA primary screening assay of the library
Type: binding
Conditions: separate plate of groups A and B (L2 control 85.0443); crude library members; DMSO = 100%; mean of N = 2
Description: The library was screened by the ELEBA we reported previously.[44] The crude products resulting from diethyl ether precipitation were used for the primary and secondary ELEBA without additional purification. The concentrations of the crude products were estimated based on quantitative yields; actual concentrations were thus lower, depending on yield and purity. The library products were dissolved in DMSO as stock solutions for assays. […] Recombinant human Pin1 conjugated to horseradish peroxidase (Pin1–HRP) was used in the binding assays.[44] Fmoc-VPRpTPVGGGK-NH2 L2 was used as the positive control and DMSO was used as the negative control on each plate. The percent of Pin1–HRP bound to the plate was calculated by normalizing the binding with DMSO to be 100%. In the primary assays (Figure S1), 14 of the best library members were identified: 1{2,d}, 1{18,f}, 1{20,f}, 1{10, l}, 1{13, l}, 1{18, l}, 1{20, l}, 1{10, n}, 1{18, n}, 1{19, n}, 1{2, n}, 1{20, n}, 1{14, o}, 1{3, o}. In the secondary assay, these ligands were measured again at 270 μM, and three hits, 1{2, d}, 1{18, l} and 1{2, n}, were chosen for further analysis (Figure 3).
The Pin1 WW domain ligand, Fmoc–VPRpTPVGGGK–NH2, (100 μL/well, 245 μM stock solution) was covalently attached to a 96-well plate through the ε-amino group of the Lys side chain at pH 11.0, as published.[44] Ligands were dissolved in DMSO at stock concentrations of ca. 50 mM by weight. Competitive binding with plate-linked Fmoc–VPRpTPVGGGK–NH2L1 of pSer–Pro dipeptides was measured at ca. 600 μM for primary screening. In the primary assays, all library members were screened with the crude products. 1{1-21, d} were measured as mixtures of cis- and trans-isomers. Library members synthesized from racemic reagents, such as 1{1-21, c}, 1{1-21, l}, 1{1-21, q}, 1{3, a-q} and 1{8, a-q} were measured as diastereomeric mixtures. The library members were dissolved in DMSO as stock solutions with a concentration of about 37 mM based on estimated yields. The DMSO stock solution of each compound (4 μL) was added into a solution of recombinant Pin1–HRP (R&D Systems) in a PBS buffer with 2% BSA (pH = 7.3). DMSO (4 μL) was used as a negative control. The final volume of the solution was 250 μL, the final concentration of Pin1–HRP was 200 pM, and the estimated final compound concentration was 590 μM. The resulting solution was preincubated for 30 min at ambient temperature, and was added into two wells (100 μL each, for assay in duplicate) of the ligand-linked plate. The solutions were incubated for another 1 h. The solutions were removed by inverting and shaking the plate, and the plate was washed with buffer ([…], and 0.05% Tween 20 in PBS at pH 7.3) three times. A 1:1 solution of hydrogen peroxide and 3,3,5,5′-tetramethylbenzidine (100 μL) was added into each plate well, and incubated in the dark for 20 min. A 2N H2SO4 solution (50 μL) was added to each well to quench the reaction, and the absorbance of was determined at 450 nm. The percentage of Pin1–HRP bound to the plate (% binding) was calculated by eq 1. To calculate the absorbance of a plate well in eq 1, the blank ligand-linked plate was predetermined at the same wavelength, and the absorbance of the blank well was subtracted from the absorbance of the same well containing the final solution. [drawing 2] 1 […]
The Fmoc-Ser(2- […]
cyanoethylphosphate)-OH product was cleaved from the resin with TFA. 1H NMR indicated the presence of the Fmoc group, implying that the substrate was successfully attached to the resin (data not shown). To develop the coupling methods, 2-(2-naphthyl)ethylamine and propionic acid were reacted with the pSer–Pro resin. The resulting propanoyl-pSer–Pro–(2-(2-naphthyl)ethyl)-amide (1H NMR below) was excluded from the library assays.
Figure S1 (following pages). Ligands (group A – O) were screening using ELEBA at ca. 266 µM.
Fmoc-VPRpTPVGGGK-NH2 L2 was used as positive control at 76-87 µM from stock solutions […]
of 4.3-4.8 mM. […]

| Structure (SMILES) | % of Pin1-HRP bound to plate-linked ligand |
| --- | --- |
| CC(=O)NC(COP(=O)(O)O)C(=O)N1CCCC1C(=O)N(C)CC(C)c1ccccc1 (mixture of isomers) [1{3,a}] | 118.382% |
| CC(CN(C)C(=O)C1CCCN1C(=O)C(COP(=O)(O)O)NC(=O)C=Cc1c[nH]cn1)c1ccccc1 (mixture of isomers) [1{3,b}] | 124.358% |
| CC1CCCCN1CCCNC(=O)C1CCCN1C(=O)C(COP(=O)(O)O)NC(=O)C=Cc1c[nH]cn1 (mixture of isomers) [1{8,b}] | 102.481% |
| O=C(C=Cc1c[nH]cn1)NC(COP(=O)(O)O)C(=O)N1CCCC1C(=O)N1CCCC1 (centres unmarked) [1{1,b}] | 117.035% |
| CC(=O)N[C@@H](COP(=O)(O)O)C(=O)N1CCC[C@H]1C(=O)Nc1ccc2[nH]ncc2c1 [1{2,a}] | 115.042% |
| O=C(C=Cc1c[nH]cn1)NC(COP(=O)(O)O)C(=O)N1CCCC1C(=O)Nc1ccc2[nH]ncc2c1 (centres unmarked) [1{2,b}] | 113.209% |
| O=C(C=Cc1c[nH]cn1)NC(COP(=O)(O)O)C(=O)N1CCCC1C(=O)NCCc1ccc(O)cc1 (centres unmarked) [1{4,b}] | 124.444% |
| CC(=O)N[C@@H](COP(=O)(O)O)C(=O)N1CCC[C@H]1C(=O)N(C)CCc1ccccn1 [1{5,a}] | 108.292% |
| CN(CCc1ccccn1)C(=O)C1CCCN1C(=O)C(COP(=O)(O)O)NC(=O)C=Cc1c[nH]cn1 (centres unmarked) [1{5,b}] | 113.92% |
| COC(=O)C=C(C)NC(=O)C1CCCN1C(=O)C(COP(=O)(O)O)NC(=O)C=Cc1c[nH]cn1 (centres unmarked) [1{6,b}] | 111.464% |
| CCN(CC)CCCCN(C)C(=O)[C@@H]1CCCN1C(=O)[C@H](COP(=O)(O)O)NC(=O)/C=C/c1c[nH]cn1 [1{7,b}] | 108.279% |
| O=C(C=Cc1c[nH]cn1)NC(COP(=O)(O)O)C(=O)N1CCCC1C(=O)NCCc1c[nH]cn1 (centres unmarked) [1{9,b}] | 117.354% |
| CC(=O)N[C@@H](COP(=O)(O)O)C(=O)N1CCC[C@H]1C(=O)N1CCN(c2ncccn2)CC1 [1{10,a}] | 102.123% |
| O=C(C=Cc1c[nH]cn1)NC(COP(=O)(O)O)C(=O)N1CCCC1C(=O)N1CCN(c2ncccn2)CC1 (centres unmarked) [1{10,b}] | 93.9893% |
| O=C(C=Cc1c[nH]cn1)NC(COP(=O)(O)O)C(=O)N1CCCC1C(=O)NCCCn1ccnc1 (centres unmarked) [1{12,b}] | 94.4757% |
| CC(=O)NC(COP(=O)(O)O)C(=O)N1CCCC1C(=O)N1CCC(N2CCCCC2)CC1 (centres unmarked) [1{13,a}] | 109.315% |
| O=C(/C=C/c1c[nH]cn1)N[C@@H](COP(=O)(O)O)C(=O)N1CCC[C@H]1C(=O)N1CCC(N2CCCCC2)CC1 [1{13,b}] | 96.4764% |
| O=C(C=Cc1c[nH]cn1)NC(COP(=O)(O)O)C(=O)N1CCCC1C(=O)NCCc1c[nH]c2ccccc12 (centres unmarked) [1{14,b}] | 109.953% |
| CC(=O)N[C@@H](COP(=O)(O)O)C(=O)N1CCC[C@H]1C(=O)NC1CCN(Cc2ccccc2)CC1 [1{15,a}] | 110.698% |
| O=C(C=Cc1c[nH]cn1)NC(COP(=O)(O)O)C(=O)N1CCCC1C(=O)NC1CCN(Cc2ccccc2)CC1 (centres unmarked) [1{15,b}] | 98.3254% |
| O=C(/C=C/c1c[nH]cn1)N[C@@H](COP(=O)(O)O)C(=O)N1CCC[C@H]1C(=O)NCCCN1CCOCC1 [1{17,b}] | 94.8602% |
| CC(=O)N[C@@H](COP(=O)(O)O)C(=O)N1CCC[C@H]1C(=O)NNC(=O)c1ccco1 [1{18,a}] | 102.518% |
| O=C(/C=C/c1c[nH]cn1)N[C@@H](COP(=O)(O)O)C(=O)N1CCC[C@H]1C(=O)NNC(=O)c1ccco1 [1{18,b}] | 87.6813% |
| CC(=O)N[C@@H](COP(=O)(O)O)C(=O)N1CCC[C@H]1C(=O)N1CCCCC1 [1{19,a}] (Ac-[pS]-Pro-Piperidide) | 116.14% |
| O=C(C=Cc1c[nH]cn1)NC(COP(=O)(O)O)C(=O)N1CCCC1C(=O)N1CCCCC1 (centres unmarked) [1{19,b}] | 97.5722% |
| CC(=O)N[C@@H](COP(=O)(O)O)C(=O)N1CCC[C@H]1C(=O)N1CCOCC1 [1{20,a}] (Ac-[pS]-Pro-Morpholide) | 115.484% |
| O=C(C=Cc1c[nH]cn1)NC(COP(=O)(O)O)C(=O)N1CCCC1C(=O)NCCc1ccc2ccccc2c1 (centres unmarked) [1{21,b}] | 77.3223% |

Results, then the molecule that gave them:

| % of Pin1-HRP bound to plate-linked ligand | Structure (SMILES) |
| --- | --- |
| 108.888% | CC(=O)NC(COP(=O)(O)O)C(=O)N1CCCC1C(=O)NCCCN1CCCCC1C (mixture of isomers) [1{8,a}] |
| 111.106% | CC(=O)NC(COP(=O)(O)O)C(=O)N1CCCC1C(=O)N1CCCC1 (centres unmarked) [1{1,a}] (Ac-[pS]-Pro-Pyrrolidide; configuration not given here) |
| 120.879% | CC(=O)NC(COP(=O)(O)O)C(=O)N1CCCC1C(=O)NCCc1ccc(O)cc1 (centres unmarked) [1{4,a}] |
| 116.564% | COC(=O)C=C(C)NC(=O)[C@@H]1CCCN1C(=O)[C@H](COP(=O)(O)O)NC(C)=O [1{6,a}] |
| 99.5048% | CCN(CC)CCCCN(C)C(=O)[C@@H]1CCCN1C(=O)[C@H](COP(=O)(O)O)NC(C)=O [1{7,a}] |
| 109.367% | CC(=O)NC(COP(=O)(O)O)C(=O)N1CCCC1C(=O)NCCc1c[nH]cn1 (centres unmarked) [1{9,a}] |
| 74.9059% | CC(=O)N[C@@H](COP(=O)(O)O)C(=O)N1CCC[C@H]1C(=O)NCCCCCCN [1{11,a}] |
| 79.8617% | NCCCCCCNC(=O)[C@@H]1CCCN1C(=O)[C@H](COP(=O)(O)O)NC(=O)/C=C/c1c[nH]cn1 [1{11,b}] |
| 109.194% | CC(=O)NC(COP(=O)(O)O)C(=O)N1CCCC1C(=O)NCCCn1ccnc1 (centres unmarked) [1{12,a}] |
| 120.534% | CC(=O)N[C@@H](COP(=O)(O)O)C(=O)N1CCC[C@H]1C(=O)NCCc1c[nH]c2ccccc12 [1{14,a}] |
| 112.945% | CC(=O)NC(COP(=O)(O)O)C(=O)N1CCCC1C(=O)NCCCCNC(=N)N (centres unmarked) [1{16,a}] (Ac-[pS]-Pro-Agmatine; configuration not given here) |
| 94.5777% | N=C(N)NCCCCNC(=O)[C@@H]1CCCN1C(=O)[C@H](COP(=O)(O)O)NC(=O)/C=C/c1c[nH]cn1 [1{16,b}] |
| 117.069% | CC(=O)NC(COP(=O)(O)O)C(=O)N1CCCC1C(=O)NCCCN1CCOCC1 (centres unmarked) [1{17,a}] |
| 113.792% | CC(=O)NC(COP(=O)(O)O)C(=O)N1CCCC1C(=O)NCCc1ccc2ccccc2c1 (centres unmarked) [1{21,a}] |
